From patent US20260347372A1, “SMALL MOLECULE INHIBITORS OF KRAS G12D MUTANT” (MERCK SHARP & DOHME LLC, priority 2023, published 2026)

Columns and labels:
HRAS = HRAS (Homo sapiens, UniProt P01112); test: SOS-catalyzed nucleotide exchange assay, HRAS (Procedure A); format: biochemical; conditions: GNE
Summary of the method: (§1)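 60 min cpd preinc. w/ RAS–Bodipy-GDP–Tb-SA complex; + hSOS/GTP (3 mM final), RT. G12C 3 nM RAS/40 nM SOS; WT, G12D 1 nM/40 nM; 60 min rxn. G13D 1.25 nM, no SOS, 30 min rxn. HEPES pH 7.5, 10 mM MgCl2. Ratio 520/495, norm. to DMSO/max-inhibitor ctrls.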

PANC08.13 cells = target: T1, PANC08.13 cells (Homo sapiens, UniProt P01116, G12D); test: Cellular phospho-ERK assay, PANC08.13 cells (KRAS G12D); format: cell-based; conditions: 2 hours, read-out: PANCO 813 pERK IC50
T1 construct: p-ERK/total ERK AlphaSureFire read-out
T1 sequence (P01116 1-188 isoform P01116-2 G12D): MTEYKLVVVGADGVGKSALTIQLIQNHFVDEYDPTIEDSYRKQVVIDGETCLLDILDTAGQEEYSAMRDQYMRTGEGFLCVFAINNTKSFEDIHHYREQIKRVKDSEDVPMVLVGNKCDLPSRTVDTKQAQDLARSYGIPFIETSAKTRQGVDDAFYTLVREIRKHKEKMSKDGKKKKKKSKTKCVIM
Description: Procedure for Cellular Phospho-ERK Assay in KRAS Wild Type and Mutant (G12D, G12V) Cell Lines
PANC08.13 cells (ATCC® CRL-2551™), containing homozygous KRAS-G12D activating mutation, were cultured in growth medium made of RPMI1640-GlutaMAX™-I (ThermoFisher Scientific 61870) containing 15% heat inactivated fetal bovine serum (ThermoFisher Scientific 10091148)). AsPC-1 cells (ATCC® CRL-1682™), containing homozygous KRAS-G12D activating mutation, were cultured in T150 flask in growth medium (RPMI medium 1640-GlutaMAX™-I (ThermoFisher Scientific 61870) containing 10% fetal bovine serum (ThermoFisher Scientific 10091148)).
Cells for the assay were harvested in growth medium after TrypLE (ThermoFisher scientific 12604021) digestion and were seeded in a 384-well collagen coated cell culture plate (Corning 356702) at a density of 10,000-15,000 cells/20 μL/well, and incubated at 37° C., 5% CO2 overnight. The compound (with 10 mM stock concentration) dose-response titrations were prepared [30 μM final ERK detection assay concentration and 1:3 dilutions, 10-point dose response] and appropriate amounts (270 nL) of test compounds were dispensed in a 384-well intermediate plate using an Echo 550 liquid handler. 30 μL/well of RPMI medium 1640-GlutaMAX™-I was added to the intermediate plate and the contents of the intermediate plate (10 μL/well) were then transferred to the 384-well collagen coated cell culture plate, which was incubated at 37° C., 5% CO2 for 2 hours. After removal of medium from the collagen coated cell culture plate, cells were lysed in lysis buffer from Alpha SureFire® Ultra™ Multiplex p-ERK and total ERK assay kit (PerkinElmer MPSU-PTERK) containing Halt™ Protease and Phosphatase inhibitor cocktail (ThermoFisher Scientific 78446) at room temperature with constant shaking at 300 rpm for 30 minutes. The cell lysates were then transferred to an OptiPlate-384 plate (PerkinElmer 6005620), and the phosphorylation of ERK (p-ERK) and total ERK levels were detected by Alpha SureFire® Ultra™ Multiplex p-EEK kit and total ERK assay kit (PerkinElmer MPSU-PTERK) following the manufacturer's protocol. Assay plates were read on a EnVision Multimode Plate Reader (PerkinElmer), and the ratio of p-ERK vs. total ERK in each well was used as the final readout. Dose response curves were analyzed using a 4-parameter logistic model to calculate IC50 values using Spotfire software.

NRAS = NRAS (Homo sapiens, UniProt P01111); test: SOS-catalyzed nucleotide exchange assay, NRAS (Procedure A); format: biochemical; conditions: GNE
NRAS, sequence (P01111 with tags, fused parts or gaps): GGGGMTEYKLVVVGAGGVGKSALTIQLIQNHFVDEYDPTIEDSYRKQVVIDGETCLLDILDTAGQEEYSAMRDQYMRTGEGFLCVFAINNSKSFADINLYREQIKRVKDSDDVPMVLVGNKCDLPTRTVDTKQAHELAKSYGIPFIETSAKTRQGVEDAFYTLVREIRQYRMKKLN
Summary of the method: as §1

KRAS G12D = KRAS G12D (Homo sapiens, UniProt P01116, G12D); test: SOS-catalyzed nucleotide exchange assay, KRAS G12D (Procedure A); format: biochemical; conditions: guanine nucleotide exchange (GNE)
KRAS G12D, sequence (P01116 with tags, fused parts or gaps isoform P01116-2 G12D): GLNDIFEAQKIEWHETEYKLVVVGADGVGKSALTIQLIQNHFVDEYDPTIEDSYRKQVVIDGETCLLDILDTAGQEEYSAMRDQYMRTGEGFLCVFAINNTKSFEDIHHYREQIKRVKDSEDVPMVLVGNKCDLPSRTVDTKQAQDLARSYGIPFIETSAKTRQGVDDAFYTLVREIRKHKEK
Summary of the method: as §1

KRAS G12C = KRAS G12C (Homo sapiens, UniProt P01116, C118S/C51S/C80L/G12C); test: SOS-catalyzed nucleotide exchange assay, KRAS G12C (Procedure A); format: biochemical; conditions: GNE
KRAS G12C, sequence (P01116 with tags, fused parts or gaps isoform P01116-2 G12C/C51S/C80L/C118S): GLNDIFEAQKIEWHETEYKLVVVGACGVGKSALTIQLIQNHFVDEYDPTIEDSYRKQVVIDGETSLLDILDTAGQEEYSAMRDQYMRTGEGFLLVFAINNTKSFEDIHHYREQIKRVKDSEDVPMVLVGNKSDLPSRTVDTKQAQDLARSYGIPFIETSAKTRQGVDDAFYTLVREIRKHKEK
Summary of the method: as §1

KRAS G12V = KRAS G12V (Homo sapiens, UniProt P01116, G12V); test: SOS-catalyzed nucleotide exchange assay, KRAS G12V (Procedure A); format: biochemical; conditions: GNE
KRAS G12V, sequence (P01116 with tags, fused parts or gaps isoform P01116-2 G12V): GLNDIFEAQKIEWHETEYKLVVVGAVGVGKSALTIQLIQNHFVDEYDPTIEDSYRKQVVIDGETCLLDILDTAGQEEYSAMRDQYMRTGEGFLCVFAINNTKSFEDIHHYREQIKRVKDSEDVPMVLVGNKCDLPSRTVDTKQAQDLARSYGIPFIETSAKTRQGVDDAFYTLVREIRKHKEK
Summary of the method: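 Biotinylated KRAS G12V was loaded with Bodipy-GDP alongside Terbium-streptavidin to form a TR-FRET complex, which was preincubated with compounds for 60 minutes in 384-well plates. Human SOS protein and unlabeled GTP were then added for 90 minutes, giving final concentrations of 1.25 nM KRAS-G12V, 160 nM SOS and 3 mM GTP. The 520/495 nm emission ratio was read on an Envision.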

KRAS G13D = KRAS G13D (Homo sapiens, UniProt P01116, G13D); test: SOS-catalyzed nucleotide exchange assay, KRAS G13D (Procedure A); format: biochemical; conditions: GNE
KRAS G13D, sequence (P01116 with tags, fused parts or gaps isoform P01116-2 G13D): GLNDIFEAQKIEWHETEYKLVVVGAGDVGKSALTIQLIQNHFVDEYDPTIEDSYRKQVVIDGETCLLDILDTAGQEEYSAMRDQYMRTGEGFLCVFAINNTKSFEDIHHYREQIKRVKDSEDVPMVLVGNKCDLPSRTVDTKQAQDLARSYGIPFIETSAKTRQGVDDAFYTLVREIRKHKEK
Summary of the method: as §1

KRAS WT = KRAS WT (Homo sapiens, UniProt P01116); test: SOS-catalyzed nucleotide exchange assay, KRAS WT (Procedure A); format: biochemical; conditions: GNE
KRAS WT, sequence (P01116 with tags, fused parts or gaps isoform P01116-2): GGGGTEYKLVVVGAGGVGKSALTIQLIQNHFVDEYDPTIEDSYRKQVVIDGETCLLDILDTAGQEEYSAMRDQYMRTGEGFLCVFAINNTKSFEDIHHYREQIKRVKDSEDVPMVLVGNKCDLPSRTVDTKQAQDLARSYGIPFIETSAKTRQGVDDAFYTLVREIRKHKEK
Summary of the method: as §1

HRAS, sequence (P01112 with tags, fused parts or gaps): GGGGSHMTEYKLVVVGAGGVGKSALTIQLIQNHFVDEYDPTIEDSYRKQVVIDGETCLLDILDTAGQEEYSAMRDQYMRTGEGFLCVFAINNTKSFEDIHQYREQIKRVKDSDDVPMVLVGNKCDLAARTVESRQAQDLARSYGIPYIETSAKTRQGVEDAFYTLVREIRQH

SMILES	IC50 (HRAS)	IC50 (PANC08.13 cells)	IC50 (NRAS)	IC50 (KRAS G12D)	IC50 (KRAS G12C)	IC50 (KRAS G12V)	IC50 (KRAS G13D)	IC50 (KRAS WT)
Cc1cc2[nH]nc(C#N)c2c(-c2nccc3c4c(N5C[C@H]6CC[C@@H](C5)N6)nc(OC[C@@]56CCCN5C[C@H](F)C6)nc4n(C)c23)c1C(F)F (single isomer, unassigned) [Ex-4]	> 11.1 µM	3.75 µM	> 11.1 µM	119 nM	> 11.1 µM	> 11.1 µM	4020 nM	> 11.1 µM
Cc1cc(N)nc(-c2nccc3c4c(N5C[C@H]6CC[C@@H](C5)N6)nc(OC[C@@]56CCCN5C[C@H](F)C6)nc4n(C)c23)c1C(F)(F)F [Ex-6, 6-(4-((1R,5S)-3,8-diazabicyclo[3.2.1]octan-3-yl)-2-(((2R,7aS)-2-fluorotetrahydro-1H-pyrrolizin-7a(5H)-yl)methoxy)-9-methyl-9H-pyrido[4′,3′:4,5]pyrrolo[2,3-d]pyrimidin-8-yl)-4-methyl-5-(trifluoromethyl)pyridin-2-amine]	> 11.1 µM	9.85 µM	> 11.1 µM	906 nM	> 11.1 µM	> 11.1 µM	> 11100 nM	> 11.1 µM
Nc1nc2c(-c3nccc4c3sc3nc(OC[C@@]56CCCN5C[C@H](F)C6)nc(N5C[C@H]6CC[C@@H](C5)N6)c34)ccc(F)c2s1 [Ex-16, 4-(4-((1R,5S)-3,8-diazabicyclo[3.2.1]octan-3-yl)-2-(((2R,7aS)-2-fluorotetrahydro-1H-pyrrolizin-7a(5H)-yl)methoxy)pyrido[4′,3′:4,5]thieno [2,3-d]pyrimidin-8-yl)-7-fluorobenzo[d]thiazol-2-amine]		9.74 µM		283 nM		> 11.1 µM		> 11.1 µM
Cc1cc2[nH]ncc2c(-c2nccc3c2sc2nc(OC[C@]4(CO)CC4(F)F)nc(N4C[C@H]5CC[C@@H](C4)N5)c23)c1OC(F)F [Ex-51, ((1R)-1-(((4-((1R,5S)-3,8-diazabicyclo[3.2.1]octan-3-yl)-8-(5-(difluoromethoxy)-6-methyl-1H-indazol-4-yl)pyrido[4′,3′:4,5]thieno[2,3-d]pyrimidin-2-yl)oxy)methyl)-2,2-difluorocyclopropyl)methanol]		6.81 µM		2150 nM		> 11.1 µM		> 11.1 µM
N#Cc1c(N)sc2c(F)ccc(-c3nccc4c3sc3nc(OC[C@]5(CO)CC5(F)F)nc(N5CC6CCC(C5)N6)c34)c12 [Ex-60, 4-(4-(3,8-diazabicyclo[3.2.1]octan-3-yl)-2-(((R)-2,2-difluoro-1-(hydroxymethyl)cyclopropyl)methoxy)pyrido[4′,3′:4,5]thieno[2,3-d]pyrimidin-8-yl)-2-amino-7-fluorobenzo[b]thiophene-3-carbonitrile]		10 µM		2690 nM		> 11.1 µM		> 11.1 µM
N#Cc1c(N)sc2c(F)cc(F)c(-c3nccc4c3sc3nc(OC[C@]5(CO)CC5(F)F)nc(N5C[C@H]6CC[C@@H](C5)N6)c34)c12 [Ex-61, 4-(4-((1R,5S)-3,8-diazabicyclo[3.2.1]octan-3-yl)-2-(((R)-2,2-difluoro-1-(hydroxymethyl)cyclopro-pyl)methoxy)pyrido[4′,3′: 4,5]thieno[2,3-d]pyrimidin-8-yl)-2-amino-5,7-difluorobenzo[b]thiophene-3-carbonitrile]		7.35 µM		859 nM		> 11.1 µM		> 11.1 µM
Cc1cc2[nH]ncc2c(-c2nccc3c2sc2nc(OCC4(CO)CCC4)nc(N4C[C@H]5CC[C@@H](C4)N5)c23)c1C(F)F [Ex-64, (1-(((4-((1R,5S)-3,8-diazabicyclo[3.2.1]octan-3-yl)-8-(5-(difluoromethyl)-6-methyl-1H-indazol-4-yl)pyrido[4′,3′:4,5]thieno[2,3-d]pyrimidin-2-yl)oxy)methyl)cyclobutyl)methanol]		> 10 µM		9420 nM		> 11.1 µM		> 11.1 µM

Molecules with a lower IC50 (PANC08.13 cells), results first:

IC50 (HRAS)	IC50 (PANC08.13 cells)	IC50 (NRAS)	IC50 (KRAS G12D)	IC50 (KRAS G12C)	IC50 (KRAS G12V)	IC50 (KRAS G13D)	IC50 (KRAS WT)	SMILES
> 11.1 µM	1.19 µM	> 11.1 µM	18 nM	> 11.1 µM	> 11.1 µM	349 nM	> 11.1 µM	Cn1c2nc(OC[C@@]34CCCN3C[C@H](F)C4)nc(N3C[C@H]4CC[C@@H](C3)N4)c2c2ccnc(-c3ccc(F)c4sc(N)c(C#N)c34)c21 [Ex-5, 4-(4-((1R,5S)-3,8-diazabicyclo[3.2.1]octan-3-yl)-2-(((2R,7aS)-2-fluorotetrahydro-1H-pyrrolizin-7a(5H)-yl)methoxy)-9-methyl-9H-pyrido[4′,3′:4,5]pyrrolo[2,3-d]pyrimidin-8-yl)-2-amino-7-fluorobenzo[b]thiophene-3-carbonitrile]
> 11.1 µM	0.572 µM	> 11.1 µM	51 nM	> 11.1 µM	> 11.1 µM	1450 nM	> 11.1 µM	C#Cc1c(F)ccc2cc(N)nc(-c3nccc4c5c(N6C[C@H]7CC[C@@H](C6)N7)nc(OC[C@@]67CCCN6C[C@H](F)C7)nc5n(C)c34)c12 [Ex-7, 1-(4-((1R,5S)-3,8-diazabicyclo[3.2.1]octan-3-yl)-2-(((2R,7aS)-2-fluorotetrahydro-1H-pyrrolizin-7a(5H)-yl)methoxy)-9-methyl-9H-pyrido[4′,3′:4,5]pyrrolo[2,3-d]pyrimidin-8-yl)-8-ethynyl-7-fluoroisoquinolin-3-amine]
	2.48 µM		698 nM		> 11.1 µM		> 11.1 µM	CCn1c2nc(OC[C@@]34CCCN3C[C@H](F)C4)nc(N3C[C@H]4CC[C@@H](C3)N4)c2c2ccnc(-c3c(C(F)(F)F)c(C)cc4[nH]ncc34)c21 [Ex-11, 4-((1R,5S)-3,8-diazabicyclo[3.2.1]octan-3-yl)-9-ethyl-2-(((2R,7aS)-2-fluorotetrahydro-1H-pyrrolizin-7a(5H)-yl)methoxy)-8-(6-methyl-5-(trifluoromethyl)-1H-indazol-4-yl)-9H-pyrido[4′,3′:4,5]pyrrolo[2,3-d]pyrimidine]
	0.666 µM		124 nM		> 11.1 µM		> 11.1 µM	Cc1cc2[nH]nc(C#N)c2c(-c2nccc3c2sc2nc(OC[C@@]45CCCN4C[C@H](F)C5)nc(N4C[C@H]5CC[C@@H](C4)N5)c23)c1C(F)F [Ex-18, 4-(4-((1R,5S)-3,8-diazabicyclo[3.2.1]octan-3-yl)-2-(((2R,7aS)-2-fluorotetrahydro-1H-pyrrolizin-7a(5H)-yl)methoxy)pyrido[4′,3′:4,5]thieno[2,3-d]pyrimidin-8-yl)-5-(difluoromethyl)-6-methyl-1H-indazole-3-carbonitrile]
	2.77 µM		724 nM		> 11.1 µM		> 11.1 µM	Cc1cc2[nH]ncc2c(-c2nccc3c2sc2nc(OC[C@]4(CO)CC4(F)F)nc(N4C[C@H]5CC[C@@H](C4)N5)c23)c1OC(F)(F)Cl [Ex-52, ((1R)-1-(((4-((1R,5S)-3,8-diazabicyclo[3.2.1]octan-3-yl)-8-(5-(chlorodifluoromethoxy)-6-methyl-1H-indazol-4-yl)pyrido[4′,3′:4,5]thieno[2,3-d]pyrimidin-2-yl)oxy)methyl)-2,2-difluorocyclopro-pyl)methanol]
